From ChEMBL document CHEMBL5625239, “Synthesis of 1,3,5-triphenyl-1,2,4-triazole derivatives and their neuroprotection by anti-oxidative stress and anti-inflammation and protecting BBB” (Eur J Med Chem, 2023)
Calls of active or inactive are those of the source. The rule behind the calls is not given here.

Experiments:
PC-12 [1] = test: Protection against SNP-induced cell damage in rat PC-12 cells at 10 uM pretreated with compound for 2 hrs followed by SNP addition and measured after 24 hrs by MTT assay; type: functional, cell-based; settings: time 26.0 hrs
[2] = target: T1, Prostaglandin G/H synthase 1 (Ovis aries, UniProt P05979); test: Inhibition of ovine COX-1 using arachidonic acid as substrate preincubated with compound for 5 mins followed by substrate addition and measured after 2 mins by enzyme immunoassay
T1 sequence (P05979 whole entry): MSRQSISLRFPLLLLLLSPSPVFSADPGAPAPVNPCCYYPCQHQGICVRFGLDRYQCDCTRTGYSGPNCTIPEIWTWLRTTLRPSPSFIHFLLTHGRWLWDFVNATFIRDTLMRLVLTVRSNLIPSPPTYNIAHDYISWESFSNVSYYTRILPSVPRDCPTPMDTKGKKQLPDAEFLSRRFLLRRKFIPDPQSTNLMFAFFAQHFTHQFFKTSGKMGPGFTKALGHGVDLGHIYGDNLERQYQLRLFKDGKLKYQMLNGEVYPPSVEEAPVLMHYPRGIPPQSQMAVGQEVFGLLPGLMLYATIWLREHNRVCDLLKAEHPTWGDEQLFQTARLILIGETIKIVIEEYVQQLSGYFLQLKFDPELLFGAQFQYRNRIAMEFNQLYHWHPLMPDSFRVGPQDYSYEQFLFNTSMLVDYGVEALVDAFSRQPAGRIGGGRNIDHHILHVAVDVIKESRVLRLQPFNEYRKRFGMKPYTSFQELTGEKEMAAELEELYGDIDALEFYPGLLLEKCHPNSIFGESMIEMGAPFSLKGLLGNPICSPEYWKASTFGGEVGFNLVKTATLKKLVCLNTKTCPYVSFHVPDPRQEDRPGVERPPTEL

RAW264.7 [3] = test: Cytotoxicity against mouse RAW264.7 cells assessed as reduction in cell viability at 5 uM incubated for 24 hrs by MTT assay; type: toxicity, cell-based; settings: raw264.7, 24 h
RAW264.7 [4] = test: Anti-inflammatory activity in mouse RAW264.7 cells assessed as inhibition of LPS-induced NO production preincubated with compound for 1 hrs followed by LPS stimulation and measured after 24 hrs; type: functional, cell-based; settings: time 25.0 hrs
RAW264.7 [5] = test: Anti-inflammatory activity in LPS-induced mouse RAW264.7 cells assessed as reduction in PGE2 level preincubated with compound for 1 hrs followed by LPS stimulation and measured after 24 hrs by ELISA; type: functional, cell-based; settings: time 25.0 hrs
PC-12 [6] = test: Neuroprotective activity against SNP-induced cell damage in rat PC-12 cells at 2.5 to 100 uM pretreated with compound for 2 hrs followed by SNP addition and measured after 24 hrs by MTT assay; type: functional, cell-based; settings: dose 2.5-100 µM, time 26.0 hrs
Rattus norvegicus [7] = test: Neuroprotective activity against middle cerebral artery occlusion induced ischemia stroke Sprague-Dawley rat model assessed as cerebral infarction area at 10 mg/kg, ip measured after 24 hrs by TTC staining based imaging analysis (reference value: 20.08 +/- 5.70); type: functional
Rattus norvegicus [8] = test: Neuroprotective activity against middle cerebral artery occlusion induced ischemia stroke Sprague-Dawley rat model assessed as reduction in glycocalyx degradation by measuring decrease in serum syndecan-1 level at 20 mg/kg, ip measured after 24 hrs by ELISA; type: functional, organism-based
PC-12 [9] = test: Neuroprotective activity against SNP-induced cell damage in rat PC-12 cells pretreated with compound for 2 hrs followed by SNP addition and measured after 24 hrs by MTT assay; type: functional, cell-based; settings: dose 2.5-100 µM, time 26.0 hrs

| SMILES | Activity (PC-12 [1]) | IC50 [2] [µM] | other results |
| --- | --- | --- | --- |
| NS(=O)(=O)c1ccc(-n2nc(-c3ccc([N+](=O)[O-])cc3)nc2-c2ccccc2O)cc1 | Active |  |  |
| COc1ccc(O)c(-c2nc(-c3ccccc3O)n(-c3ccc(S(N)(=O)=O)cc3)n2)c1 | Active | 12.8 |  |
| NS(=O)(=O)c1ccc(-n2nc(-c3ccc(Cl)cc3O)nc2-c2ccc(Cl)cc2O)cc1 | Active |  |  |
| COc1ccc(-c2nc(-c3ccccc3OC(C)=O)n(-c3ccccc3)n2)c(OC(C)=O)c1 | Active |  |  |
| NS(=O)(=O)c1ccc(-n2nc(-c3ccc([N+](=O)[O-])cc3O)nc2-c2ccccc2O)cc1 | Active |  |  |
| COc1ccc(-c2nc(-c3ccccc3O)n(-c3ccccc3)n2)c(O)c1 | Active |  |  |
| NS(=O)(=O)c1ccc(-n2nc(-c3ccc(C(F)(F)F)cc3O)nc2-c2ccc(C(F)(F)F)cc2O)cc1 | Active |  |  |
| Cc1ccc(-c2cc(C(F)(F)F)nn2-c2ccc(S(N)(=O)=O)cc2)cc1 [CELECOXIB] |  |  | Activity (RAW264.7 [3]): Non-Toxic; Activity (RAW264.7 [4]): Active; Activity (RAW264.7 [5]): Active; Activity (PC-12 [6]): inactive |
| Oc1cc(C(F)(F)F)ccc1-c1nc(-c2ccccc2O)n(-c2ccccc2)n1 | Active |  |  |
| COc1ccc(-c2nc(-c3ccccc3O)n(-c3ccc(S(N)(=O)=O)cc3)n2)cc1 | Active |  |  |
| CC1=NN(c2ccccc2)C(=O)C1 [EDARAVONE] |  |  | Activity (Rattus norvegicus [7]): 15.41; Activity (Rattus norvegicus [8]): Active |
| COc1ccc(-c2nc(-c3ccccc3O)n(-c3ccc(S(N)(=O)=O)cc3)n2)c(O)c1 | Active | 45.5 |  |
| Cc1ccc(-c2nc(-c3ccc(C)cc3O)n(-c3ccc(S(N)(=O)=O)cc3)n2)c(O)c1 | Active |  |  |
| Oc1ccccc1-c1nc(-c2ccccc2O)n(-c2ccccc2)n1 | Active |  |  |
| CC(=O)Oc1ccccc1-c1nc(-c2ccccc2OC(C)=O)n(-c2ccccc2)n1 | Active |  |  |
| COc1ccc(-c2nc(-c3ccc(OC)cc3O)n(-c3ccc(S(N)(=O)=O)cc3)n2)c(O)c1 | Active |  |  |
| NS(=O)(=O)c1ccc(-n2nc(-c3ccc(F)cc3)nc2-c2ccccc2O)cc1 | Active | 41.6 | Activity (RAW264.7 [3]): Non-Toxic; Activity (RAW264.7 [4]): Active; Activity (RAW264.7 [5]): Active |
| CS(=O)(=O)c1ccc(-n2nc(-c3ccccc3O)nc2-c2ccccc2O)cc1 | Active |  |  |
| CS(=O)(=O)c1ccc(-n2nc(-c3ccc(C(F)(F)F)cc3O)nc2-c2ccccc2O)cc1 | Active | 82.1 | Activity (RAW264.7 [3]): Non-Toxic; Activity (RAW264.7 [4]): Active; Activity (RAW264.7 [5]): Active; Activity (PC-12 [9]): Dose-Dependent Effect |
| CC(=O)Oc1cc(C(F)(F)F)ccc1-c1nc(-c2ccccc2OC(C)=O)n(-c2ccccc2)n1 | Active |  |  |
| Cc1ccc(-c2nc(-c3ccccc3O)n(-c3ccc(S(N)(=O)=O)cc3)n2)c(O)c1 | Active | 42.3 | Activity (RAW264.7 [3]): Non-Toxic; Activity (RAW264.7 [4]): Active; Activity (RAW264.7 [5]): Active; Activity (PC-12 [9]): Dose-Dependent Effect |
| COc1cccc(-c2nc(-c3ccccc3O)n(-c3ccc(S(N)(=O)=O)cc3)n2)c1O | Active | 20 |  |
| NS(=O)(=O)c1ccc(-n2nc(-c3ccc(F)cc3O)nc2-c2ccccc2O)cc1 | Active |  |  |
| NS(=O)(=O)c1ccc(-n2nc(-c3ccccc3)nc2-c2ccccc2O)cc1 | Active | 32.1 | Activity (RAW264.7 [3]): Non-Toxic; Activity (RAW264.7 [4]): Active; Activity (RAW264.7 [5]): Active |
| NS(=O)(=O)c1ccc(-n2nc(-c3ccc(F)cc3O)nc2-c2ccc(F)cc2O)cc1 | Active | 26.3 | Activity (RAW264.7 [3]): Non-Toxic; Activity (RAW264.7 [4]): Active; Activity (RAW264.7 [5]): Active; Activity (PC-12 [9]): Dose-Dependent Effect |
| COc1ccc(-c2nc(-c3ccccc3O)n(-c3ccc(S(C)(=O)=O)cc3)n2)c(O)c1 | Active |  |  |
| NS(=O)(=O)c1ccc(-n2nc(-c3ccc(C(F)(F)F)cc3)nc2-c2ccccc2O)cc1 | Active | 43.4 | Activity (RAW264.7 [3]): Non-Toxic; Activity (RAW264.7 [4]): Active; Activity (RAW264.7 [5]): Active |
| NS(=O)(=O)c1ccc(-n2nc(-c3ccc(Cl)cc3O)nc2-c2ccccc2O)cc1 | Active | 25.6 |  |
| NS(=O)(=O)c1ccc(-n2nc(-c3ccccc3O)nc2-c2ccccc2O)cc1 | Active | 39.2 | Activity (RAW264.7 [3]): Non-Toxic; Activity (RAW264.7 [4]): Active; Activity (RAW264.7 [5]): Active; Activity (PC-12 [9]): Dose-Dependent Effect |
